Test results taken from ChEMBL document CHEMBL5625206, “Design, synthesis, and evaluation of novel pleuromutilin aryl acrylate derivatives as promising broad-spectrum antibiotics especially for combatting multi-drug resistant gram-negative bacteria” (Eur J Med Chem, 2023).
≈ marks a conversion by molar mass, not a printed value. Calls of active or inactive are those of the source. The rule behind the calls is not given here.

Assays:
[1] = Toxicity in fasted female Sprague-Dawley rat assessed as relative spleen weight ratio at 100 mg/kg, IG measured for 14 days (reference value: 0.223 +/- 0.019); format: organism-based; conditions: in vivo, po, 336 h, time 14 day
[2] = Toxicity in fasted male Sprague-Dawley rat assessed as relative lung weight ratio at 148 mg/kg, IG measured for 14 days (reference value: 0.437 +/- 0.064); format: organism-based; conditions: in vivo, po, 336 h, time 14 day
[3] = Toxicity in fasted female Sprague-Dawley rat assessed as relative lung weight ratio at 100 mg/kg, IG measured for 14 days (reference value: 0.534 +/- 0025); format: organism-based; conditions: in vivo, po, 336 h, time 14 day
Acinetobacter baumannii [4] = assay: Antibacterial activity against carbapenem-resistant Acinetobacter baumannii 882 clinical isolate assessed as bacterial growth inhibition incubated for 24 hrs by CLSI based broth microdilution method; format: functional
[5] = Toxicity in fasted female Sprague-Dawley rat assessed as relative lung weight ratio at 331 mg/kg, IG measured for 14 days (reference value: 0.534 +/- 0025); format: organism-based; conditions: in vivo, po, 336 h, time 14 day
[6] = system: Mesomycoplasma hyopneumoniae; assay: Anti-mycoplasma activity against Mycoplasma hyopneumoniae J-NCYC10110 assessed as bacterial growth inhibition incubated for 7 days; format: functional; conditions: J-NCYC10110, 168 h, time 7 day
[7] = Half life in fasted Sprague-Dawley rat at 1 mg/kg, iv by LC-MS/MS analysis; format: ADME, organism-based; conditions: in vivo
[8] = Toxicity in fasted male Sprague-Dawley rat assessed as relative liver weight ratio at 500 mg/kg, IG measured for 14 days (reference value: 3.616 +/- 0.286); format: organism-based; conditions: in vivo, po, 336 h, time 14 day
Escherichia coli [9] = assay: Inhibition of biofilm formation of Escherichia coli ATCC 25922 at 8 times MIC incubated for 24 hrs by crystal violet staining based analysis relative to control; format: functional
[10] = Toxicity in fasted female Sprague-Dawley rat assessed as relative lung weight ratio at 148 mg/kg, IG measured for 14 days (reference value: 0.534 +/- 0025); format: organism-based; conditions: in vivo, po, 336 h, time 14 day
[11] = Toxicity in Sprague-Dawley rat assessed as animal death at 10 to 100 mg/kg, IG measured for 14 days; format: organism-based; conditions: in vivo, po, 336 h, dose 10-100 mg/kg, time 14 day
Acinetobacter baumannii [12] = assay: Antibacterial activity against Acinetobacter baumannii ATCC 19606 assessed as bacterial growth inhibition incubated for 24 hrs by CLSI based broth microdilution method; format: functional
[13] = Toxicity in fasted female Sprague-Dawley rat assessed as relative lung weight ratio at 500 mg/kg, IG measured for 14 days (reference value: 0.534 +/- 0025); format: organism-based; conditions: in vivo, po, 336 h, time 14 day
Staphylococcus aureus [14] = assay: Induction of cell damage in methicillin-resistant Staphylococcus aureus ATCC 33591 assessed as decrease in intracellular ATP concentration at 2 times MIC incubated for 30 mins by fluorescence based analysis relative to control; format: functional; set-up: scale not given: the % may be the effect or the level left; conditions: 0.5 h
[15] = Toxicity in fasted female Sprague-Dawley rat assessed as relative kidney weight ratio at 148 mg/kg, IG measured for 14 days (reference value: 0.802 +/- 0.031); format: organism-based; conditions: in vivo, po, 336 h, time 14 day
[16] = Toxicity in fasted female Sprague-Dawley rat assessed as body weight at 100 mg/kg, IG measured after 7 days (reference value: 188.2 +/- 9.2 g); format: organism-based; conditions: in vivo, po, 168 h, time 7 day
[17] = Toxicity in fasted male Sprague-Dawley rat assessed as relative kidney weight ratio at 500 mg/kg, IG measured for 14 days (reference value: 0.820 +/- 0.072); format: organism-based; conditions: in vivo, po, 336 h, time 14 day
Staphylococcus aureus [18] = assay: Antibacterial activity against methicillin-resistant Staphylococcus aureus ATCC 33591 assessed as bacterial growth inhibition incubated for 24 hrs by CLSI based broth microdilution method; format: functional
[19] = Toxicity in fasted male Sprague-Dawley rat assessed as relative liver weight ratio at 100 mg/kg, IG measured for 14 days (reference value: 3.616 +/- 0.286); format: organism-based; conditions: in vivo, po, 336 h, time 14 day
[20] = Toxicity in fasted female Sprague-Dawley rat assessed as relative ovary weight ratio at 500 mg/kg, IG measured for 14 days (reference value: 0.061 +/- 0.010); format: organism-based; conditions: in vivo, po, 336 h, time 14 day
[21] = Toxicity in fasted male Sprague-Dawley rat assessed as relative lung weight ratio at 331 mg/kg, IG measured for 14 days (reference value: 0.437 +/- 0.064); format: organism-based; conditions: in vivo, po, 336 h, time 14 day
[22] = Toxicity in fasted female Sprague-Dawley rat assessed as relative heart weight ratio at 331 mg/kg, IG measured for 14 days (reference value: 0.429 +/- 0.016); format: organism-based; conditions: in vivo, po, 336 h, time 14 day
Escherichia coli [23] = assay: Induction of cell damage in Escherichia coli ATCC 25922 assessed as decrease in intracellular ATP concentration at 2 times MIC incubated for 30 mins by fluorescence based analysis relative to control; format: functional; set-up: scale not given: the % may be the effect or the level left; conditions: 0.5 h
[24] = Toxicity in fasted female Sprague-Dawley rat assessed as relative spleen weight ratio at 500 mg/kg, IG measured for 14 days (reference value: 0.223 +/- 0.019); format: organism-based; conditions: in vivo, po, 336 h, time 14 day
Staphylococcus aureus [25] = assay: Antibacterial activity against methicillin-resistant Staphylococcus aureus ATCC 33591 infected in neutropenic Kunming mouse model assessed as reduction in infection-induced inflammatory cell inflammation in lung at 10 mg/kg, ip measured after 7 days; format: functional, organism-based; conditions: time 7.0 day
Staphylococcus aureus [26] = assay: Antibacterial activity against methicillin-resistant Staphylococcus aureus ATCC 33591 infected in neutropenic Kunming mouse model assessed as reduction in infection-induced lung damage at 20 mg/kg, ip measured after 7 days; format: functional, organism-based; conditions: time 7.0 day
Escherichia coli [27] = assay: Bactericidal activity against Escherichia coli ATCC 25922 assessed as reduction in colony count at MIC incubated for 24 hrs by time kill assay relative to control; format: functional
[28] = Toxicity in fasted female Sprague-Dawley rat assessed as relative spleen weight ratio at 331 mg/kg, IG measured for 14 days (reference value: 0.223 +/- 0.019); format: organism-based; conditions: in vivo, po, 336 h, time 14 day
[29] = Toxicity in fasted female Sprague-Dawley rat assessed as relative spleen weight ratio at 148 mg/kg, IG measured for 14 days (reference value: 0.223 +/- 0.019); format: organism-based; conditions: in vivo, po, 336 h, time 14 day
Staphylococcus aureus [30] = assay: Antibacterial activity against methicillin-resistant Staphylococcus aureus ATCC 33591 infected in neutropenic Kunming mouse model assessed as bacterial load reduction in kidney at 10 to 20 mg/kg, ip measured after 2 days; format: functional, organism-based; conditions: dose 10-20 mg/kg, time 2.0 day
[31] = Toxicity in fasted male Sprague-Dawley rat assessed as relative testis weight ratio at 331 mg/kg, IG measured for 14 days (reference value: 0.993 +/- 0.052); format: organism-based; conditions: in vivo, po, 336 h, time 14 day
Staphylococcus aureus [32] = assay: Induction of cell damage in methicillin-resistant Staphylococcus aureus ATCC 33591 assessed as fold increase in extracellular ATP concentration at 2 times MIC incubated for 30 mins by fluorescence based analysis relative to control; format: functional; conditions: 0.5 h
Escherichia coli [33] = assay: Induction of cell damage in Escherichia coli ATCC 25922 assessed as intracellular pH at MIC incubated for 30 mins by fluorescence based analysis (reference value: 6.05 +/- 0.10); format: functional; conditions: 0.5 h
[34] = Toxicity in fasted male Sprague-Dawley rat assessed as relative heart weight ratio at 100 mg/kg, IG measured for 14 days (reference value: 0.396 +/- 0.043); format: organism-based; conditions: in vivo, po, 336 h, time 14 day
Staphylococcus aureus [35] = assay: Antibacterial activity against Staphylococcus aureus ATCC 25923 assessed as bacterial growth inhibition incubated for 24 hrs by CLSI based broth microdilution method; format: functional

C=C[C@]1(C)C[C@@H](OC(=O)COC(=O)/C=C/c2ccc(N(C)C)cc2)[C@]2(C)[C@H](C)CC[C@]3(CCC(=O)[C@H]32)[C@@H](C)[C@@H]1O
Ratio [1]: 0.226
Ratio [2]: 0.415
Ratio [3]: 0.522
MIC (Acinetobacter baumannii [4]): 64 µg/mL (≈ 116 µM)
Ratio [5]: 0.528
MIC [6]: 0.008 µg/mL (≈ 0.0145 µM)
half-life [7]: 40.8 min
Ratio [8]: 3.551
inhibition (INH) (Escherichia coli [9]): 97.56%
Ratio [10]: 0.494
Activity [11]: Non-Toxic
MIC (Acinetobacter baumannii [12]): 32 µg/mL (≈ 58 µM)
Ratio [13]: 0.503
Activity (Staphylococcus aureus [14]): 86.52%
Ratio [15]: 0.818
Activity [16]: 188.2 g
Ratio [17]: 0.759
MIC (Staphylococcus aureus [18]): 2 µg/mL (≈ 3.63 µM)
Ratio [19]: 3.623
Ratio [20]: 0.071
Ratio [21]: 0.397
Ratio [22]: 0.471
Activity (Escherichia coli [23]): 67.87%
Ratio [24]: 0.23
Activity (Staphylococcus aureus [25]): inactive
Activity (Staphylococcus aureus [26]): Active
Activity (Escherichia coli [27]): 3.99 log10CFU/ml
Ratio [28]: 0.247
Ratio [29]: 0.238
Activity (Staphylococcus aureus [30]): Active
Ratio [31]: 1
fold change (FC) (Staphylococcus aureus [32]): 3.21
pH (Escherichia coli [33]): 4.34
Ratio [34]: 0.396
MIC (Staphylococcus aureus [35]): 1 µg/mL (≈ 1.81 µM)
